Consider 31 compounds from patent publication US7405228B2, “Antibacterial cyano-(substituted)-methylenepiperidinophenyl oxazolidinones targeting multiple ribonucleoprotein sites” (Wockhardt Limited, priority 2002, dated 2008).

One may read the melting point as the temperature, or range, at which the solid turns liquid.

The structures appear in SMILES notation.

`CS(=O)(=O)OC[C@H]1CN(c2ccc(N3CCC(C(C#N)c4nccs4)CC3)c(F)c2)C(=O)O1` (stereo partly drawn) [Example 157, (R)-{3-[4-(4-(1-cyano-1-(1,3-thiazol-2-yl))-methylpiperidin-1-yl)-3-fluorophenyl]-2-oxo-oxazolidin-5-ylmethyl}-methanesulphonate] registered a melting point of 64 to 66 °C.

As to `CC(C#N)=C1CCN(c2ccc(N3C[C@H](COc4ccon4)OC3=O)cc2F)CC1` [Example 83, (R)-3-{3-[4-(4-(1-cyanoethylidene)-piperidin-1-yl)-3-fluorophenyl]-2-oxo-oxazolidin-5-ylmethyloxy}-iso-oxazole], the melting point fell in the range of 137 to 138 °C. `CC(C#N)=C1CCN(c2ccc(N3C[C@H](CNC(=O)CC#N)OC3=O)cc2F)CC1` [Example 75, (S)-N-{3-[4-(4-(1-cyanoethylidene)-piperidin-1-yl)-3-fluorophenyl]-2-oxo-oxazolidin-5-ylmethyl}-2-cyanoacetamide] gave a melting point of 194 to 196 °C. With `CC(C#N)=C1CCN(c2ccc(N3C[C@H](CO)OC3=O)cc2F)CC1` [Example 82, (R)-{3-[4-(4-(1-cyanoethylidene)-piperidin-1-yl)-3-fluorophenyl]-2-oxo-oxazolidin-5-ylmethyl}-alcohol] the figure was 100 to 102 °C.

For the compound `N#CC=C1CCN(c2ccc(N3C[C@H](CNC(=O)CO)OC3=O)cc2F)CC1` [Example 13, (S)-N-{3-[4-(4-cyanomethylidene-piperidin-1-yl)-3-fluorophenyl]-2-oxo-oxazolidin-5-ylmethyl}-2-hydroxyacetamide], the melting point was 68 to 70 °C. `N#CC=C1CCN(c2ccc(N3C[C@H](CN4C(=O)c5ccccc5C4=O)OC3=O)cc2F)CC1` [Example 44, (S)-N-{3-[4-(4-cyanomethylidene-piperidin-1-yl)-3-fluorophenyl]-2-oxo-oxazolidin-5-ylmethyl}-1-pthalamide] yielded a melting point of 183 to 185 °C. With `N#CC=C1CCN(c2ccc(N3C[C@H](CNC(=O)CC#N)OC3=O)cc2F)CC1` [Example 23, (S)-N-{3-[4-(4-cyanomethylidene-piperidin-1-yl)-3-fluorophenyl]-2-oxo-oxazolidin-5-ylmethyl}-2-cyanoacetamide] the figure was 150 to 152 °C; with `CC(C#N)=C1CCN(c2ccc(N3C[C@H](CNC(=O)CN)OC3=O)cc2F)CC1` [Example 76, (S)-N-{3-[4-(4-(1-cyanoethylidene)-piperidin-1-yl)-3-fluorophenyl]-2-oxo-oxazolidin-5-ylmethylamino}-carboxymethylamine], 141 to 142 °C.

In turn, `N#CC=C1CCN(c2ccc(N3C[C@H](CN=C=O)OC3=O)cc2F)CC1` (stereo in doubt) had a melting point of 172 to 174 °C.

`N#CC=C1CCN(c2ccc(N3C[C@H](CNC(=S)CN)OC3=O)cc2F)CC1` [Example 49, (S)-N-{3-[4-(4-cyanomethylidene-piperidin-1-yl)-3-fluorophenyl]-2-oxo-oxazolidin-5-ylmethylamino}-thiocarbonylmethylamine] registered a melting point of 157 to 158 °C. With `N#CC=C1CCN(c2ccc(N3C[C@H](CNC(=O)C4COC(=O)N4)OC3=O)cc2F)CC1` (stereo in doubt) [Example 24, (S)-N-{3-[4-(4-cyanomethylidene-piperidin-1-yl)-3-fluorophenyl]-2-oxo-oxazolidin-5-ylmethyl}-2-oxo-oxazolidin-4-yl-carboxamide] the figure was 145 °C; with `CC1CN(c2ccc(N3C[C@H](CNC=O)OC3=O)cc2F)CC/C1=C\C#N` (stereo partly drawn) [Example 62, (S)-N-{3-[4-(4-cyanomethylidene-3-methylpiperidin-1-yl)-3-fluorophenyl]-2-oxo-oxazolidin-5-ylmethyl}-formamide], 98 to 100 °C. With `CC(=O)NC[C@H]1CN(c2ccc(N3CCC(=C(C#N)CCO)CC3)c(F)c2)C(=O)O1` [Example 113, (S)-N-{3-[4-(4-(1-cyano-3-hydroxy-propylidene)-piperidin-1-yl)-3-fluorophenyl]-2-oxo-oxazolidin-5-ylmethyl}-acetamide] the figure was 192 to 194 °C; with `CC(=O)NC[C@H]1CN(c2ccc(N3CC=C(CC#N)C(C)C3)c(F)c2)C(=O)O1` (stereo partly drawn) [Example 161, (S)-N-{3-[4-(4-cyanomethyl-3-methyl-4,5-dehydropiperidin-1-yl)-3-fluorophenyl]-2-oxo-oxazolidin-5-ylmethyl}-acetamide], 149 to 150 °C. `N#CCC1CCN(c2ccc(N3CC(Cn4cc(C#N)nn4)OC3=O)cc2F)CC1` (stereo in doubt) [Example 128, (S)-1-{3-[4-(4-cyanomethyl-piperidin-1-yl)-3-fluorophenyl]-2-oxo-oxazolidin-5-ylmethyl}-4-cyano-1,2,3-triazole] displayed a melting point of 200 to 202 °C.

`N#CC=C1CCN(c2ccc(N3C[C@H](CNC(=O)CBr)OC3=O)cc2F)CC1` [Example 34, (S)-N-{3-[4-(4-cyanomethylidene-piperidin-1-yl)-3-fluorophenyl]-2-oxo-oxazolidin-5-ylmethyl}-bromoacetamide]: the melting point was 160 to 162 °C.

`N#CC=C1CCN(c2ccc(N3C[C@H](CNC=O)OC3=O)cc2F)CC1` [Example 8, (S)-N-{3-[4-(4-cyanomethylidene-piperidin-1-yl)-3-fluorophenyl]-2-oxo-oxazolidin-5-ylmethyl}-formamide]: the melting point was 183 to 184 °C. With `CC(=O)NC[C@H]1CN(c2ccc(N3CCC(=C(C#N)n4ccnc4)CC3)c(F)c2)C(=O)O1` [Example 102, (S)-N-{3-[4-(4-(1-cyano-1-(imidazol-1-yl)-methylidene)-piperidin-1-yl)-3-fluorophenyl]-2-oxo-oxazolidin-5-ylmethyl}-acetamide] the figure was 196 to 198 °C; with `CS(=O)(=O)OC[C@H]1CN(c2ccc(N3CCC(=CC#N)CC3)c(F)c2)C(=O)O1` [Example 54, (R)-{3-[4-(4-cyanomethylidene-piperidin-1-yl)-3-fluorophenyl]-2-oxo-oxazolidin-5-ylmethyl}-methanesulphonate], 126 to 128 °C. Compound `CS(=O)(=O)OC[C@H]1CN(c2ccc(N3CCC(CC#N)CC3)cc2)C(=O)O1` [Example 125, (R)-{3-[4-(4-cyanomethyl-piperidin-1-yl)-phenyl]-2-oxo-oxazolidin-5-ylmethyl}-methanesulphonate] registered a melting point of 114 to 116 °C. With `CC(C#N)=C1CCN(c2ccc(N3C[C@H](CNC(=O)C(Cl)(Cl)Cl)OC3=O)cc2F)CC1` [Example 80, (S)-N-{3-[4-(4-(1-cyanoethylidene)-piperidin-1-yl)-3-fluorophenyl]-2-oxo-oxazolidin-5-ylmethyl}-trichloroacetamide] the figure was 166 to 168 °C; with `N#CC=C1CCN(c2ccc(N3C[C@H](CNC(=O)[C@@H](N)Cc4c[nH]cn4)OC3=O)cc2F)CC1` [Example 43, (2S, 5S){N-{3-[4-(4-cyanomethylidene-piperidin-1-yl)-3-fluorophenyl]-2-oxo-oxazolidin-5-ylmethyl}-3-(imidazol-4-yl)-propionamid-2-yl}-amine], 93 to 96 °C. On to `CC(=O)NC[C@H]1CN(c2ccc(N3CC/C(=C(/C)C#N)C(F)C3)c(F)c2)C(=O)O1` (stereo partly drawn) [Example 85, (S)-N-{3-[4-(4-(1-cyanoethylidene)-3-fluoropiperidin-1-yl)-3-fluorophenyl]-2-oxo-oxazolidin-5-ylmethyl}-acetamide], for which the melting point was 148 to 150 °C. With `C[C@H](N)C(=O)NC[C@H]1CN(c2ccc(N3CCC(=CC#N)CC3)c(F)c2)C(=O)O1` [Example 41, (2S, 5S)-{N-{3-[4-(4-cyanomethylidene-piperidin-1-yl)-3-fluorophenyl]-2-oxo-oxazolidin-5-ylmethyl}-propionamid-2-yl}-amine] the figure was 103 to 105 °C; with `CCOC(=O)c1cnnn1CC1CN(c2ccc(N3CCC(=CC#N)CC3)c(F)c2)C(=O)O1` (stereo in doubt) [Example 27, (S)-1-{3-[4-(4-cyanomethylidene-piperidin-1-yl)-3-fluorophenyl]-2-oxo-oxazolidin-5-ylmethyl}-5-carboethoxy-1,2,3-triazole], 70 to 72 °C; with `N#CC=C1CCN(c2ccc(N3C[C@H](CNC(=O)C(Cl)(Cl)Cl)OC3=O)cc2F)CC1` [Example 33, (S)-N-{3-[4-(4-cyanomethylidene-piperidin-1-yl)-3-fluorophenyl]-2-oxo-oxazolidin-5-ylmethyl}-trichloroacetamide], 142 to 144 °C. Under `CC(=O)NC[C@H]1CN(c2ccc(N3CC/C(=C(\C)C#N)C(F)C3)c(F)c2)C(=O)O1` (stereo partly drawn) [Example 87, Z-(S)-N-{3-[4-(4-(1-cyanoethylidene)-3-fluoropiperidin-1-yl)-3-fluorophenyl]-2-oxo-oxazolidin-5-ylmethyl}-acetamide] stands 148 to 150 °C. Under `CC(=O)NC[C@H]1CN(c2ccc(N3CCC(=C(C)C#N)CC3)cc2)C(=O)O1` [Example 72, (S)-N-{3-[4-(4-(1-cyanoethylidene)-piperidin-1-yl)-phenyl]-2-oxo-oxazolidin-5-ylmethyl}-acetamide] stands 94 to 96 °C; under `N#CC=C1CCN(c2ccc(N3CC(Cn4cc(C#N)nn4)OC3=O)cc2F)CC1` (stereo in doubt) [Example 28, (S)-1-{3-[4-(4-cyanomethylidene-piperidin-1-yl)-3-fluorophenyl]-2-oxo-oxazolidin-5-ylmethyl}-4-cyano-1,2,3-triazole], 78 to 80 °C. Take `N#CC(CO)C1CCN(c2ccc(N3C[C@H](COc4ccon4)OC3=O)cc2F)CC1` (stereo partly drawn) [Example 153, (R)-3-{3-[4-(4-(1-cyano-2-hydroxy)-ethylpiperidin-1-yl)-3-fluorophenyl]-2-oxo-oxazolidin-5-ylmethyloxy}-iso-oxazole]: the melting point was 146 to 148 °C.

On to `N#CCC1CCN(c2ccc(N3CC(Cn4cc(C(N)=O)nn4)OC3=O)cc2F)CC1` (stereo in doubt) [Example 127, (S)-1-{3-[4-(4-cyanomethyl-piperidin-1-yl)-3-fluorophenyl]-2-oxo-oxazolidin-5-ylmethyl}-4-carboxamido-1,2,3-triazole], for which the melting point is 248 to 250 °C.
